Laboratory results reported in patent US20120165206A1, “Method and Assay for Glycosylation Pattern Detection Related to Cell State” (priority 2006, published 2012).

Assays:
[1] = system: PC12 cells; assay: Lectin array glycoanalysis (Qproteome Glycoprofiling Kit) of membrane proteins of PC12 cells treated with BFA; type: cell-based; settings: 12 ug/ml BFA, 24 h
Description: (§1) Lectins with differing, well-characterized glycan-binding specificities are spotted on the surface of an array. The array is probed with a biotinylated membrane glycoprotein mixture and washed to reduce background. Bound biotinylated glycoproteins are visualized with Cy®3-labeled streptavidin using a microarray scanner. Following scanning, the resulting images are analyzed using Qiagen GlycoAnalyzer Software.
(§2) Each lectin is printed on the slides at seven concentrations. The analysis provides a lectin fingerprint for each sample: a histogram in which each bar represents the slope of the dose-response curve observed for each lectin. […] All fingerprints in an experiment are preferably normalized to the fingerprint of the reference sample. Microarray technologies generally require normalization between slides to adjust for variations that arise from technology, rather than from biological differences. The normalization in Qproteome Glycoprofiling Kits is preferably based on a robust-regression algorithm (using MM-estimators; please see Example 9 for a description).
Materials and Methods: PC12 cells were treated with 12 ug/ml BFA for 24 h. […] Cells were then harvested and analyzed with the Qproteome Glycoprofiling Kit (Qiagen USA; the assay was performed as described in the kit manual according to manufacturer's instructions).

[2] = system: 3T3L1 cells; assay: Lectin array glycoanalysis (Qproteome Glycoprofiling Kit) of membrane proteins of 3T3L1 cells treated with DMJ; type: cell-based, mouse; settings: pre-confluent 3T3L1 cells, 800 ug/ml DMJ, 3 days, FIG. 4
Description: as §1, §2
Materials and Methods: Pre-confluent 3T3L1 cells were incubated for 3 days in the presence or absence of 800 ug/ml DMJ. Cells were then harvested and analyzed with the Qproteome Glycoprofiling Kit (Qiagen USA; the assay was performed as described in the kit manual according to manufacturer's instructions).

| Structure (SMILES) | cell morphology / attachment [1] | antennarity of the membrane glycoproteins (lectin that binds N-linked complex antennary structures) ([1]; FIG. 3) | signals from lectins recognizing terminal sugars such as alpha-galactose, beta-galactose, sialic acid and fucose ([1]; FIG. 3) | antennarity (lectins that bind N-linked complex antennary structures) ([2]; vs non-treated cells) | signals from all oligomannose binding lectins (high mannose glycans) ([2]; vs non-treated cells) | sugars found on antennae termini such as beta galactose and sialic acid [2] |
| --- | --- | --- | --- | --- | --- | --- |
| C[C@H]1CCC/C=C/[C@@H]2C[C@H](O)C[C@H]2[C@H](O)/C=C/C(=O)O1 [BFA, Brefeldin A] | morphological changes were observed and cells were detached | significant decrease | Decreases |  |  |  |
| OC[C@H]1NC[C@@H](O)[C@@H](O)[C@@H]1O [DMJ, 1-deoxymannojirimycin] |  |  |  | strongly reduced | significantly increased | decrease |
